Measurements: PMC5754397, “Population pharmacokinetics of nintedanib, an inhibitor of tyrosine kinases, in patients with non-small cell lung cancer or idiopathic pulmonary fibrosis” (Cancer Chemotherapy and Pharmacology, 2017)

What was measured:
[1] = parameters: method as in ref 13, 21, 22 = [13]; 13. Boehringer Ingelheim (2017) OFEV® (nintedanib) capsules, for oral use; Prescribing information, revised: 08/2017. http://docs.boehringer-ingelheim.com/Prescribing%20Information/PIs/Ofev/ofev.pdf . || [21]; 21. Boehringer Ingelheim (2013) Relative bioavailability of nintedanib given alone and in combination with ketoconazole at steady state in healthy male volunteers (an open-label, randomised, two-way c || [22]; 22. Boehringer Ingelheim (2013) Relative bioavailability of a single oral dose of nintedanib given alone and in combination with multiple oral doses of rifampicin in healthy male volunteers (an open-l); conditions: cited from earlier work
[2] = Population pharmacokinetic analysis in healthy subjects after intravenous administration of nintedanib (one-compartment model); assay type: in vivo, human; conditions: human, plasma, estimate (RSE%)
From the text: The pharmacokinetic profile of BIBF 1202 was best described by a one-compartment model with first-order elimination (see Online Resource Fig. S1 for model structure). To account for formation of BIBF 1202 in the intestine or via hepatic first-pass effect, a first-order absorption with lag time (ALAG2) was implemented as per nintedanib absorption. The relative bioavailability (F2) and the absorption-rate constant (k a2) were implemented as functions of nintedanib F1 and k a, respectively (substantial drop in OFV as compared to a model, where F2 and k a2 were estimated independently of F1 and k a). This parametrization accounted for correlations between nintedanib and BIBF 1202 parameters and replaced the full variance–covariance matrix which was not applied due to the sequential modeling approach used. The rate of formation of BIBF 1202 (k met) during nintedanib systemic elimination was accounted by defining it as a function of nintedanib clearance: k met = CL/V2*ffM, where CL and V2 denote the clearance and central volume of distribution of nintedanib respectively, and ffM denotes the proportion of the nintedanib elimination resulting in BIBF 1202 formation. Due to the lack of data for BIBF 1202 given as an intravenous (IV) infusion, several parameter estimates were not identifiable (ffM, BIBF 1202 apparent volume of distribution [V3/F]) and were, therefore, fixed. The value for ffM was derived from pharmacokinetic data after IV administration of nintedanib (Online Resource Table S4) and the ratio of V3/F–V2/F was fixed based on information observed in rats. […] In addition to the (inter-individual) variability of F2 induced by the variability in F1 (F2 being proportional to F1), additional IIV could be implemented for F2.
Table S4 Structural parameters for nintedanib and BIBF 1202 from a population pharmacokinetic analysis based on healthy subjects (n=23^a, 372 observations) after intravenous administration of nintedanib
One subject (3 mg dose) was excluded from analysis due to increasing plasma concentrations of nintedanib after end of infusion

[3] = Phase I trial; cited from earlier work
[4] = parameters: method as in PMID 20460487, PMID 25299232; conditions: cited from earlier work

- clearance ([2]; healthy subjects (n=23), single intravenous nintedanib infusion 1, 3 or 6 mg, data of absolute bioavailability study [7], read-out: CL, total body clearance for nintedanib (converted)): 2570 mL/min
- Vd ([2]; healthy subjects, intravenous nintedanib, read-out: V2, volume of distribution for nintedanib): 60.9 L
SMILES: COC(=O)c1ccc2c(c1)NC(=O)/C2=C(\Nc1ccc(N(C)C(=O)CN2CCN(C)CC2)cc1)c1ccccc1 [nintedanib]
- increase of nintedanib exposure on co-administration with ketoconazole ([1]; 400 mg ketoconazole (potent P-gp inhibitor)): 60%
- decrease of nintedanib exposure on co-administration with rifampicin ([1]; 600 mg rifampicin (potent P-gp inducer)): 50%
- increase of exposure (AUC0−∞) by food [3]: 20%
- increase of maximum plasma concentrations (Cmax) by food [3]: 20%
- pharmacokinetic interaction between nintedanib and either docetaxel or pemetrexed [4]: no significant pharmacokinetic interaction
